The source made the active and inactive calls. No cut-off for these calls is given here.
What was measured:
[1] = molecular target: Hepatocyte growth factor receptor (Homo sapiens, UniProt P08581); assay: Homogeneous Time Resolved Fluorescence Assay
[2] = molecular target: 5-hydroxytryptamine receptor 1B (Homo sapiens) (UniProt P28222); conditions: Compound concentration 10.0 uM
[3] = molecular target: 5-hydroxytryptamine receptor 1E (Homo sapiens) (UniProt P28566); conditions: Compound concentration 10.0 uM
[4] = molecular target: 5-hydroxytryptamine receptor 2A (Homo sapiens) (UniProt P28223); conditions: Compound concentration 10.0 uM
[5] = molecular target: 5-hydroxytryptamine receptor 2C (Homo sapiens) (UniProt P28335); conditions: Compound concentration 10.0 uM
[6] = molecular target: 5-hydroxytryptamine receptor 3A (Homo sapiens) (UniProt P46098); conditions: Compound concentration 10.0 uM
[7] = molecular target: 5-hydroxytryptamine receptor 6 (Homo sapiens, UniProt P50406); conditions: Compound concentration 10.0 uM
[8] = molecular target: 5-hydroxytryptamine receptor 7 (Homo sapiens) (UniProt P34969); conditions: Compound concentration 10.0 uM
[9] = molecular target: D(1A) dopamine receptor (Homo sapiens) (UniProt P21728); conditions: Compound concentration 10.0 uM
[10] = molecular target: D(2) dopamine receptor (Homo sapiens) (UniProt P14416); conditions: Compound concentration 10.0 uM
[11] = molecular target: T1, D(4) dopamine receptor (Homo sapiens) (UniProt P21917); conditions: Compound concentration 10.0 uM
T1 sequence (whole entry): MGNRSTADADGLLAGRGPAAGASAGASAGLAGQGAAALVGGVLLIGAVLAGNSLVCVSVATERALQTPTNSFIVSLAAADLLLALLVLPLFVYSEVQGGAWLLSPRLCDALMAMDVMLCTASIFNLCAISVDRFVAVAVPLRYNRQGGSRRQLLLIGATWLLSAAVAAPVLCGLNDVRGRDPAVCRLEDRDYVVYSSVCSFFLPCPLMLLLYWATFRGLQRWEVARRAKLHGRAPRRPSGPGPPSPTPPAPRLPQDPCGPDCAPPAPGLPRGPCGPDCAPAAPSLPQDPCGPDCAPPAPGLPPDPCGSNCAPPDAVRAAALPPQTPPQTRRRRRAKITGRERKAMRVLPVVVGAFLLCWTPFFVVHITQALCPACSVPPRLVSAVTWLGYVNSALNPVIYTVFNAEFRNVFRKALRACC

[12] = molecular target: D(1B) dopamine receptor (Homo sapiens, UniProt P21918); conditions: Compound concentration 10.0 uM
[13] = molecular target: Delta-type opioid receptor (Homo sapiens) (UniProt P41143); conditions: Compound concentration 10.0 uM
[14] = molecular target: Histamine H2 receptor (Homo sapiens) (UniProt P25021); conditions: Compound concentration 10.0 uM
[15] = molecular target: Alpha-1B adrenergic receptor (Homo sapiens) (UniProt P35368); conditions: Compound concentration 10.0 uM
[16] = molecular target: Alpha-2A adrenergic receptor (Homo sapiens) (UniProt P08913); conditions: Compound concentration 10.0 uM
[17] = molecular target: Alpha-2B adrenergic receptor (Homo sapiens) (UniProt P18089); conditions: Compound concentration 10.0 uM
[18] = molecular target: Alpha-2C adrenergic receptor (Homo sapiens) (UniProt P18825); conditions: Compound concentration 10.0 uM
[19] = molecular target: Beta-1 adrenergic receptor (Homo sapiens) (UniProt P08588); conditions: Compound concentration 10.0 uM
[20] = molecular target: Beta-2 adrenergic receptor (Homo sapiens) (UniProt P07550); conditions: Compound concentration 10.0 uM
[21] = molecular target: T2, Muscarinic acetylcholine receptor M2 (Homo sapiens) (UniProt P08172); conditions: Compound concentration 10.0 uM
T2 sequence (whole entry): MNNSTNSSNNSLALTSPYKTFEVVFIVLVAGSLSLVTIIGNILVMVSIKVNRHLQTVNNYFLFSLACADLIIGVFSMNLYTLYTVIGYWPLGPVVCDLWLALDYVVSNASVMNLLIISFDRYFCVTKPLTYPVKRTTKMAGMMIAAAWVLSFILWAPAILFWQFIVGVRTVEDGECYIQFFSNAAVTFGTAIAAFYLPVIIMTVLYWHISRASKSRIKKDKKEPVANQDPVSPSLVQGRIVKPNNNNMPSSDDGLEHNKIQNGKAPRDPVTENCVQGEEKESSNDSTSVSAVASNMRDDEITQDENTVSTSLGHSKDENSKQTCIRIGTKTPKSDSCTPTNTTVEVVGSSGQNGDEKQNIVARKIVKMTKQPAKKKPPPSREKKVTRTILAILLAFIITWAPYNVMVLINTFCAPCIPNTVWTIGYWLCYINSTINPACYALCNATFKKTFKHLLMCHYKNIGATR

[22] = molecular target: Muscarinic acetylcholine receptor M3 (Homo sapiens) (UniProt P20309); conditions: Compound concentration 10.0 uM
[23] = molecular target: Muscarinic acetylcholine receptor M4 (Homo sapiens) (UniProt P08173); conditions: Compound concentration 10.0 uM
[24] = molecular target: Beta-3 adrenergic receptor (Homo sapiens) (UniProt P13945); conditions: Compound concentration 10.0 uM
[25] = molecular target: T3, Alpha-1D adrenergic receptor (Homo sapiens) (UniProt P25100); conditions: Compound concentration 10.0 uM
T3 sequence (whole entry): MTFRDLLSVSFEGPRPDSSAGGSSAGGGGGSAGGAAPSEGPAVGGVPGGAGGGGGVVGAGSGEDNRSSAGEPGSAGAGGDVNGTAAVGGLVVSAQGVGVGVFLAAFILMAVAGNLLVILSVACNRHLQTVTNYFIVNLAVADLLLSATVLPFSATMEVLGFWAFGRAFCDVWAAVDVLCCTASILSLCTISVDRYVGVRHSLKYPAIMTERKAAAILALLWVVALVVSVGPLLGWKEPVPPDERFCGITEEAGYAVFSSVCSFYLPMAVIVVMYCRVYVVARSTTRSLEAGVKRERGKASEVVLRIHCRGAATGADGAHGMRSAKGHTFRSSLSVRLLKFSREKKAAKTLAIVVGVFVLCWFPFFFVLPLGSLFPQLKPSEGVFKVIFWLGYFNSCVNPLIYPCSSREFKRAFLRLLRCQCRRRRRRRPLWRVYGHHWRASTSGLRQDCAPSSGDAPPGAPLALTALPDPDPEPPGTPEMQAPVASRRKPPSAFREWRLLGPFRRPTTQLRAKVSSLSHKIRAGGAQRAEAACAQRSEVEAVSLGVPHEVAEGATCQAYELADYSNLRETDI

[26] = molecular target: Sigma intracellular receptor 2 (Homo sapiens) (UniProt Q5BJF2); conditions: Compound concentration 10.0 uM
[27] = molecular target: Sigma non-opioid intracellular receptor 1 (Homo sapiens) (UniProt Q99720); conditions: Compound concentration 10.0 uM
Sigma non-opioid intracellular receptor 1 (Homo sapiens), sequence (Q99720 whole entry): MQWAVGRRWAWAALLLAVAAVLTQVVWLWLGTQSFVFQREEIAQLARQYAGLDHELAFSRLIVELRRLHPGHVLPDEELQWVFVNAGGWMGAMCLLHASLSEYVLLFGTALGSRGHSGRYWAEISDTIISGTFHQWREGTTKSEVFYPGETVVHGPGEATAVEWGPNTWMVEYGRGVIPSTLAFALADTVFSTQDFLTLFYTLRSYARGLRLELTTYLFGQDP

5-hydroxytryptamine receptor 6, sequence (P50406 whole entry): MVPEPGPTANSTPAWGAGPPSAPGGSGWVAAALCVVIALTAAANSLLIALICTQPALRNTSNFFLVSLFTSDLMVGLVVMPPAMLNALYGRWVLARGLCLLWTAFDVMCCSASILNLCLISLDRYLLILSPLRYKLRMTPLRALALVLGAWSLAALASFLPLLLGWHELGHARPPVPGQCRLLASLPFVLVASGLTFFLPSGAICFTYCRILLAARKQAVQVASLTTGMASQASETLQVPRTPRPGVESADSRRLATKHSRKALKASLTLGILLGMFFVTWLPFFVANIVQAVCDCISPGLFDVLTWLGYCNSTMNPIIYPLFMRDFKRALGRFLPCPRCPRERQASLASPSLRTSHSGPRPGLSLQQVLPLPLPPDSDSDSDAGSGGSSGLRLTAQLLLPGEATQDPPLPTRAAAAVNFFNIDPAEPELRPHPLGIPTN
5-hydroxytryptamine receptor 2A (Homo sapiens), sequence (P28223 whole entry): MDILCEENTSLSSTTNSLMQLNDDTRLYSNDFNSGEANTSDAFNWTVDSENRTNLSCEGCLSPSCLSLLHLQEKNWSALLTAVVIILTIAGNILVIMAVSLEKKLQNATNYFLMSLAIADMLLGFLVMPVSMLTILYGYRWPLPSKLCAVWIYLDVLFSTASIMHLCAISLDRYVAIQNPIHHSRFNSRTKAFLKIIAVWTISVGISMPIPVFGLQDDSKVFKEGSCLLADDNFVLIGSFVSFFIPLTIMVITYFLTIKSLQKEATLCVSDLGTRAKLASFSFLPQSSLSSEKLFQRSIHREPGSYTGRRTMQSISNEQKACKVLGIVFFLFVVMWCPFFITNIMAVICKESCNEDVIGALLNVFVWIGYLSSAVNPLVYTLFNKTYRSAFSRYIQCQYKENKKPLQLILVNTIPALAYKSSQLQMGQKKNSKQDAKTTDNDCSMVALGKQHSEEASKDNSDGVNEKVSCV
Alpha-2B adrenergic receptor (Homo sapiens), sequence (P18089 whole entry): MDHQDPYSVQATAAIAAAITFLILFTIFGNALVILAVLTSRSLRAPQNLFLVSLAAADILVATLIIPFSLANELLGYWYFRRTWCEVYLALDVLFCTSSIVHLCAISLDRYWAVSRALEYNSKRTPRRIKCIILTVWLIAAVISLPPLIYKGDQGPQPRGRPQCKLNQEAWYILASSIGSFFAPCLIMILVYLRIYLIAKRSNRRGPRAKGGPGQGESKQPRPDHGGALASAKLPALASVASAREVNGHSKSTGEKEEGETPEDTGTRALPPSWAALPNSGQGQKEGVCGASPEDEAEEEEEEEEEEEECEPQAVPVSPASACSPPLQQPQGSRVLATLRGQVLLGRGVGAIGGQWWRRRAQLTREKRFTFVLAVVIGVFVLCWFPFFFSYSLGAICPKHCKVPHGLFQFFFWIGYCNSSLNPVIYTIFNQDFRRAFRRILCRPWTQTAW
Alpha-2A adrenergic receptor (Homo sapiens), sequence (P08913 whole entry): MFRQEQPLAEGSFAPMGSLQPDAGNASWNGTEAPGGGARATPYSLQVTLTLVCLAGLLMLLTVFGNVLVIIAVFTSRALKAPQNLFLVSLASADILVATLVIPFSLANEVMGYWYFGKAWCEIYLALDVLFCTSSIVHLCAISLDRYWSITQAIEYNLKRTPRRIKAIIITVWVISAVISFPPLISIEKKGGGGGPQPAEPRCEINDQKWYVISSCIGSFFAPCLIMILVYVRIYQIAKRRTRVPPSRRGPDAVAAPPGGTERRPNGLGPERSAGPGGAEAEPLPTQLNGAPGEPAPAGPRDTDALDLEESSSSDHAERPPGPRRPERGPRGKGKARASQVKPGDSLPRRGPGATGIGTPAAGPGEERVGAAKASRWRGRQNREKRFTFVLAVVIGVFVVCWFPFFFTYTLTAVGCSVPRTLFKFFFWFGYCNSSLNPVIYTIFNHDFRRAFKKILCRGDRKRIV
5-hydroxytryptamine receptor 3A (Homo sapiens), sequence (P46098 whole entry): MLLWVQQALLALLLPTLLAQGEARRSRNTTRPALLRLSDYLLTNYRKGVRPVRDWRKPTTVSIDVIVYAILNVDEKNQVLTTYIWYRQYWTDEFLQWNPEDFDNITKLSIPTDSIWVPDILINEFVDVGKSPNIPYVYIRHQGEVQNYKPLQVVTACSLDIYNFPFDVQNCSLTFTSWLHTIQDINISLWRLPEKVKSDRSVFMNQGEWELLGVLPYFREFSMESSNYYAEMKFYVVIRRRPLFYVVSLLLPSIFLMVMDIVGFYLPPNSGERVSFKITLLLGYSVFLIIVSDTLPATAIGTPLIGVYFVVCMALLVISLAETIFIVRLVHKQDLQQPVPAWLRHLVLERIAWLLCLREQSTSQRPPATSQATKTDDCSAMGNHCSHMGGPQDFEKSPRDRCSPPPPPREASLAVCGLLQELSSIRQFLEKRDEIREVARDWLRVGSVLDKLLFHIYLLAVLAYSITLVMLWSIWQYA
D(1B) dopamine receptor, sequence (P21918 whole entry): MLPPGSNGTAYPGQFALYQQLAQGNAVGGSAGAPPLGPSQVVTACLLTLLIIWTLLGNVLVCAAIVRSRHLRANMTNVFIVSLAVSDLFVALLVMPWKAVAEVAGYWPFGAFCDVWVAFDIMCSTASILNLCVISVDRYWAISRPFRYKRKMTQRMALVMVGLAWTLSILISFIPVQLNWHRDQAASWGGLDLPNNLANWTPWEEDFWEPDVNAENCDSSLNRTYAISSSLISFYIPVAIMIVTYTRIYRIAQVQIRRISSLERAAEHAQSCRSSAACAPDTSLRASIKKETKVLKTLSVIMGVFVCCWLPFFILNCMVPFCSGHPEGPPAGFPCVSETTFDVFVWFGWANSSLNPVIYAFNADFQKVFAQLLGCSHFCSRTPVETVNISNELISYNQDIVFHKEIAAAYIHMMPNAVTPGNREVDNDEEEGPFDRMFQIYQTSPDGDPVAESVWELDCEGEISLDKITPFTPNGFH
Muscarinic acetylcholine receptor M4 (Homo sapiens), sequence (P08173 whole entry): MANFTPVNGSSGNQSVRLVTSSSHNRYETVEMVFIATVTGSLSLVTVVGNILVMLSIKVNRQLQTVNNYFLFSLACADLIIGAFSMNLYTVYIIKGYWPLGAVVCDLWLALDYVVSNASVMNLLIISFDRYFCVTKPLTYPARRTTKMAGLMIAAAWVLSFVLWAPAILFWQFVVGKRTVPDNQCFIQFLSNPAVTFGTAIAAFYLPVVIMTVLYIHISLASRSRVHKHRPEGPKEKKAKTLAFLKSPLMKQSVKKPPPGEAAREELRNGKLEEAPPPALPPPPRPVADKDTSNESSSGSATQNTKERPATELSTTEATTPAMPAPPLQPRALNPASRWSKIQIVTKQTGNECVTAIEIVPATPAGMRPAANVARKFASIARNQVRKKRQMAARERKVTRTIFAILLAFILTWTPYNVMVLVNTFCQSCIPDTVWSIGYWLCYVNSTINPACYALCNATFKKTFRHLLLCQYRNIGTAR
Hepatocyte growth factor receptor, sequence (P08581 whole entry): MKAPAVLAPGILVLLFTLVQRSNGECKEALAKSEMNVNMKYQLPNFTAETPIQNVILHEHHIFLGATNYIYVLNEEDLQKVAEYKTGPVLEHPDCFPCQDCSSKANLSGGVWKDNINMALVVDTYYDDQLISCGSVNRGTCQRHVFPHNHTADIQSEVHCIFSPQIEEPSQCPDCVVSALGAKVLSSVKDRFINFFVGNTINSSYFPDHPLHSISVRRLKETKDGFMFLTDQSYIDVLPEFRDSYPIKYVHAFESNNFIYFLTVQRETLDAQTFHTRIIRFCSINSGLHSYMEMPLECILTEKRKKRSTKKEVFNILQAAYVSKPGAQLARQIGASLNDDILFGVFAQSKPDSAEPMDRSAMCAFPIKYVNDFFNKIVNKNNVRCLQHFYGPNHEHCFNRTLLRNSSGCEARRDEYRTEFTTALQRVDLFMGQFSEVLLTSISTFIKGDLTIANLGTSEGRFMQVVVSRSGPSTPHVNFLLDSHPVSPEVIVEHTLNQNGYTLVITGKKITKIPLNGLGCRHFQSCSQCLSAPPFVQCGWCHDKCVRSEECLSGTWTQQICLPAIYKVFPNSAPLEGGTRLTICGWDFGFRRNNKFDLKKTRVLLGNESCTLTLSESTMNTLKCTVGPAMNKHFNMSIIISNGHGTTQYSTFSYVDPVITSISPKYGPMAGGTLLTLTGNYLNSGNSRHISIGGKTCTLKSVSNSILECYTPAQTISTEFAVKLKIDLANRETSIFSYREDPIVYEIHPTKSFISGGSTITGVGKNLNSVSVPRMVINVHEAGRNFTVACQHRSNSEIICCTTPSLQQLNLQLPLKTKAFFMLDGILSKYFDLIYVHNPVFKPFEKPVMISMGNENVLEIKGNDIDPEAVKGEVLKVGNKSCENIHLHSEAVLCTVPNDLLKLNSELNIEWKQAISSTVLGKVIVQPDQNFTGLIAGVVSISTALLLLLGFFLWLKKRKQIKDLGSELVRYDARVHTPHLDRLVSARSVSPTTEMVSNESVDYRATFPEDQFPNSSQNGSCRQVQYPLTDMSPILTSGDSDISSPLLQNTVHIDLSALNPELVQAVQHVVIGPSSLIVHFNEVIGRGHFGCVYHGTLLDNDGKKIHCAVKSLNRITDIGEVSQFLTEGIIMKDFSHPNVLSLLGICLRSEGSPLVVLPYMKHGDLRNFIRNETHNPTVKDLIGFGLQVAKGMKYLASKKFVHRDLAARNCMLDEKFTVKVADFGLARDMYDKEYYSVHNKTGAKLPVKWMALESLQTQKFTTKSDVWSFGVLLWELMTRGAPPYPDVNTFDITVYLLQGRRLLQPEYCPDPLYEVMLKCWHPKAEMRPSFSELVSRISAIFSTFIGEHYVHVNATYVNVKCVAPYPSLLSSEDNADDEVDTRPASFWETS

For `CC1=C(C#N)C(c2ccc3[nH]nc(C)c3c2)C(C#N)=C(C)N1` [BAY-474], the IC50 [1] was < 0.001 µM (active), the inhibition [2] was 0.48% and the inhibition [3] was 8.21%. For the same compound, the inhibition [4] was 8.75%, the inhibition [5] was 22.4% and the inhibition [6] was 33%. For the same compound, the inhibition [7] was 20.7%, the inhibition [8] was -0.97% and the inhibition [9] was 6.92%. For the same compound, the inhibition [10] was -7.07%, the inhibition [11] was 24% and the inhibition [12] was 5.4%. It also gave an inhibition [13] of 16.9%, an inhibition [14] of 12.6% and an inhibition [15] of 1.79%. For the same compound, the inhibition [16] was -3.48%, the inhibition [17] was 8.04% and the inhibition [18] was -4.65%. It also gave an inhibition [19] of 2.16%, an inhibition [20] of 20.2% and an inhibition [21] of -8.64%. The inhibition [22] was -1.54%, the inhibition [23] was 5.33% and the inhibition [24] was 21.1%. The inhibition [25] was 2.5%, the inhibition [26] was 23.9% and the inhibition [27] was -9.08%.

With `CC1=C(C#N)[C@@H](c2ccc3[nH]nc(C)c3c2)C(C#N)=C(c2ccc(Cl)cc2)N1` [BAY-827] the IC50 [1] was 11 µM (not active), the inhibition [2] was 17.2% and the inhibition [3] was -3.84%. For the same compound, the inhibition [4] was 5.76%, the inhibition [5] was 71.8% and the inhibition [6] was 2.6%. It also gave an inhibition [7] of 55.7%, an inhibition [8] of 8.19% and an inhibition [9] of 6.7%. For the same compound, the inhibition [10] was 10.6%, the inhibition [11] was 5.34% and the inhibition [12] was 58.1%. For the same compound, the inhibition [13] was 33.4%, the inhibition [14] was 14.1% and the inhibition [15] was 21.7%. It also gave an inhibition [16] of 7.83%, an inhibition [17] of 4.71% and an inhibition [18] of -1.57%. For the same compound, the inhibition [19] was 4.66%, the inhibition [20] was -0.813% and the inhibition [21] was 18.8%. It also gave an inhibition [22] of 8.81%, an inhibition [23] of 13% and an inhibition [24] of 24.3%. For the same compound, the inhibition [25] was 7.74%, the inhibition [26] was 23.4% and the inhibition [27] was 14.6%.
